Measurements published in publication PMC6959841, “Kinetic Optimization of Lysine-Targeting Covalent Inhibitors of HSP72” (Journal of Medicinal Chemistry, 2019).
Entries after “also recorded” stand apart in the source; their conditions may differ. Values belong to the compound of their own block, whether it stands above or below them.

Tests used:
HSP72 = conditions: read-out: KM for ATP; cited from earlier work
HSP72-NBD [1] = target: T1, HSP72-NBD (Homo sapiens, UniProt P0DMV8); conditions: even at high concentrations; cited from earlier work
HSP72-NBD [2] = target: T1, HSP72-NBD; assay: HSP72-NBD nucleotide-derived FP-assay (probe displacement, App. Ki, time-dependent); type: binding
HSP72-NBD [3] = target: T1, HSP72-NBD; assay: Covalent (kinetic) FP-assay; type: binding
HSP72-NBD [4] = target: T1, HSP72-NBD; assay: Intact-protein mass spectrometry of covalent adduct formation; type: binding; conditions: 20 μM compound, 2.0 μM HSP72-NBD, 21 °C

T1 sequence (P0DMV8 2-386 limits assumed): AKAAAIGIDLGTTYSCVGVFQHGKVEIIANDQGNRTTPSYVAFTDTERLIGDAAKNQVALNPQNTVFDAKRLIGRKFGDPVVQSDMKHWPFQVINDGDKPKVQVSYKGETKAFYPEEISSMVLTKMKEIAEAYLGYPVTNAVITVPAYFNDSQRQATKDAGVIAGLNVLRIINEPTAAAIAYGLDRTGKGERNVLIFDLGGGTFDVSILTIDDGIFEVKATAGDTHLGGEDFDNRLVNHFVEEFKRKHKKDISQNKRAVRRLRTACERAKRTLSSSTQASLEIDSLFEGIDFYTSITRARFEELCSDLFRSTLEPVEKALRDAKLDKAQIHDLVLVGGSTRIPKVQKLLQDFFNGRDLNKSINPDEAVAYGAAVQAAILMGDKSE

SMILES: Nc1ncnc2c1ncn2[C@@H]1O[C@H](COP(=O)(O)OP(=O)(O)OP(=O)(O)O)[C@@H](O)[C@H]1O [ATP]
- Km (HSP72): ~1 µM

- Ki (HSP72-NBD [2]; Time 19 h): 7.2 µM
- Ki (HSP72-NBD [2]; Time 46 h): 3.7 µM
- Ki (HSP72-NBD [2]; Time […] (printed 0.08 3)): 17 µM
- kinact (HSP72-NBD [3]; from kinact/KI and initial Ki, assuming KI = Ki): 1.6e-05 s⁻¹
- t1/2^inf (HSP72-NBD [3]; ln 2/kinact): 12 h
SMILES: C=CC(=O)OCCC[C@H]1O[C@@H](n2c(NCc3ccc(Cl)cc3)nc3c(N)ncnc32)[C@H](O)[C@@H]1O [Compound 2, 3-((2R,3S,4R,5R)-5-(6-amino-8-((4-chlorobenzyl)amino)-9H-purin-9-yl)-3,4-dihydroxytetrahydrofuran-2-yl)propyl acrylate]
- exposure required for complete formation of the covalent complex by intact-protein MS (HSP72-NBD [1]): > 24 h

SMILES: Nc1ncnc2c1nc(NCc1ccc(Cl)cc1)n2[C@@H]1O[C@H](COCc2ccc(C(=O)Oc3ccc(F)cc3)cc2)[C@@H](O)[C@H]1O [Compound 8, 4-fluorophenyl 4-((((2R,3S,4R,5R)-5-(6-amino-8-((4-chlorobenzyl)amino)-9H-purin-9-yl)-3,4-dihydroxytetrahydrofuran-2-yl)methoxy)methyl)benzoate]
- covalent-bond formation by intact-protein MS (HSP72-NBD [4]): no evidence of specific and selective covalent-bond formation

SMILES: CC1(C)O[C@@H]2[C@H](O1)[C@@H](COC(=O)c1ccc(S(=O)(=O)F)cc1)O[C@H]2n1c(NCc2ccc(Cl)cc2)nc2c(N)ncnc21 [Compound 13, ((3aR,4R,6R,6aR)-6-(6-amino-8-((4-chlorobenzyl)amino)-9H-purin-9-yl)-2,2-dimethyltetrahydrofuro[3,4-d][1,3]dioxol-4-yl)methyl 4-(fluorosulfonyl)benzoate]
- covalent-bond formation by intact-protein MS (HSP72-NBD [4]): no reaction; also recorded: no reactivity
- reversible binding affinity (HSP72-NBD [2]): no reversible binding affinity
- time dependence of App. Ki / probe displacement curve (HSP72-NBD [2]; WT HSP72-NBD): no time-dependent displacement

- fold weaker/less potent than tight-binding reversible MMP 9 (HSP72-NBD [2]): > 18 fold
SMILES: N#Cc1ccc(C(=O)OC[C@H]2O[C@@H](n3c(NCc4ccc(Cl)cc4)nc4c(N)ncnc43)[C@H](O)[C@@H]2O)cc1 [Compound 15, ((2R,3S,4R,5R)-5-(6-amino-8-((4-chlorobenzyl)amino)-9H-purin-9-yl)-3,4-dihydroxytetrahydrofuran-2-yl)methyl 4-cyanobenzoate]

SMILES: Nc1ncnc2c1ncn2[C@@H]1O[C@H](COC(=O)c2ccc(S(=O)(=O)F)cc2)[C@@H](O)[C@H]1O [Compound 16, ((2R,3S,4R,5R)-5-(6-amino-9H-purin-9-yl)-3,4-dihydroxytetrahydrofuran-2-yl)methyl 4-(fluorosulfonyl)benzoate]
- fold weaker activity / decrease in covalent efficiency vs TCI 14 (HSP72-NBD [3]): 70 fold
